The numbers were not newly measured in patent US12508229B2, “Method for preparing stable peptide formulations” (Amphastar Pharmaceuticals, Inc., priority 2019, dated 2025), which cites them from elsewhere.

For `OC[C@H]1O[C@@H]2O[C@H]3[C@H](O)[C@@H](O)[C@@H](O[C@H]4[C@H](O)[C@@H](O)[C@@H](O[C@H]5[C@H](O)[C@@H](O)[C@@H](O[C@H]6[C@H](O)[C@@H](O)[C@@H](O[C@H]7[C@H](O)[C@@H](O)[C@@H](O[C@H]1[C@H](O)[C@H]2O)O[C@@H]7CO)O[C@@H]6CO)O[C@@H]5CO)O[C@@H]4CO)O[C@@H]3CO` [α-CD, α-cyclodextrin], the aqueous solubility result is reported as “about 5 wt %”.

For `OC[C@H]1O[C@@H]2O[C@H]3[C@H](O)[C@@H](O)[C@@H](O[C@H]4[C@H](O)[C@@H](O)[C@@H](O[C@H]5[C@H](O)[C@@H](O)[C@@H](O[C@H]6[C@H](O)[C@@H](O)[C@@H](O[C@H]7[C@H](O)[C@@H](O)[C@@H](O[C@H]8[C@H](O)[C@@H](O)[C@@H](O[C@H]9[C@H](O)[C@@H](O)[C@@H](O[C@H]1[C@H](O)[C@H]2O)O[C@@H]9CO)O[C@@H]8CO)O[C@@H]7CO)O[C@@H]6CO)O[C@@H]5CO)O[C@@H]4CO)O[C@@H]3CO` [γ-cyclodextrin], the “aqueous solubility (in words)” value is on record as “freely soluble in water”.

As to hydroxypropyl β-cyclodextrin [HP-ß-CD], the “aqueous solubility (in words)” value is “higher aqueous solubility than α-CD”.
